Results taken from patent US6881741B2 (ViroChem Pharma Inc., priority 2001, dated 2005).
Like-named read-outs stand apart in the source and are kept apart here.

Target: recombinant HCV NS5B (HCV RNA-dependent RNA polymerase) (Hepatitis C virus genotype 1b, UniProt P26663)
Assay: biochemical
[1] = HCV polymerase activity, list of compounds of Example 27, read-out: IC50 (polymerase activity)
[2] = related polymerase activity (Example 27 list), read-out: IC50

Sequence of recombinant HCV NS5B (HCV RNA-dependent RNA polymerase) (P26663 2420-3010 limits assumed): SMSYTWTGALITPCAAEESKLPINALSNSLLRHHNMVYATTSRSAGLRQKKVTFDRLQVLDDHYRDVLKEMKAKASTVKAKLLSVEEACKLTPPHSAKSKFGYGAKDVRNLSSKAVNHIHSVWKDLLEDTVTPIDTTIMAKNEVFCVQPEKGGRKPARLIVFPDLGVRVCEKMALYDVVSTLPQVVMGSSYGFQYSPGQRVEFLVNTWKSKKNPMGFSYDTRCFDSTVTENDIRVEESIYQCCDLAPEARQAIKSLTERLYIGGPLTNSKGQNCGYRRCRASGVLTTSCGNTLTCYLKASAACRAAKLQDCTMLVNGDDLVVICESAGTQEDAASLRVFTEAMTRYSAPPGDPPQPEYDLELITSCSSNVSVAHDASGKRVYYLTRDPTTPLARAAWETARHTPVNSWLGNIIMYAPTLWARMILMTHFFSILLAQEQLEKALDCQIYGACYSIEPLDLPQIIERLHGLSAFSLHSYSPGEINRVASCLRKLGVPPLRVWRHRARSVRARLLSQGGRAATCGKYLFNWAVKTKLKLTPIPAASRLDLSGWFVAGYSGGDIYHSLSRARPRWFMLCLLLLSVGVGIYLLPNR

Compound: CC(C)C(=O)N(Cc1ccc(C(F)(F)F)cc1)c1cc(-c2ccccc2)sc1C(=O)O [Compound 411, 3-[ISOBUTYRYL-(4-TRIFLUOROMETHYL- BENZYL)-AMINO]-5-PHENYL-THIOPHENE- 2-CARBOXYLIC ACID]
- IC50 [1]: 5 to 20 µM

Compound: CC(=O)N1CCC(N(C(=O)c2ccc(Cl)cc2Cl)c2cc(-c3ccccc3)sc2C(=O)O)CC1 [Compound 429, 3-[(1-ACETYL-PIPERIDIN-4-YL)-(2,4- DICHLORO-BENZOYL)-AMINO]-5- PHENYL-THIOPHENE-2-CARBOXYLIC ACID]
- IC50 [1]: < 5 µM

Compound: Cc1ccc(S(=O)(=O)Nc2cc(C(C)(C)C)sc2C(=O)O)c(C)c1 [Compound 315, 5-#TERT!-BUTYL-3-(2,4-DIMETHYL- BENZENESULFONYLAMINO)- THIOPHENE-2-CARBOXYLIC ACID]
- IC50 [2]: 5 to 20 µM

Compound: O=C(O)c1sc(-c2ccccc2)cc1N(Cc1ccc(C(F)(F)F)cc1)C(=O)CC1CCCC1 [Compound 416, 3-[(2-CYCLOPENTYL-ACETYL)-(4- TRIFLUOROMETHYL-BENZYL)-AMINO]-5- PHENYL-THIOPHENE-2-CARBOXYLIC ACID]
- IC50 [1]: 5 to 20 µM

Compound: O=C(O)c1sc(-c2ccccc2)cc1NS(=O)(=O)c1c(F)cc(F)cc1F [Compound 151, 5-PHENYL-3-(2,4,6-TRIFLUORO-BENZENESULFONYLAMINO)-THIOPHENE-2-CARBOXYLIC ACID]
- IC50 [2]: < 5 µM

Compound: CC1CCC(C(=O)N(c2cc(-c3ccc(Cl)cc3)sc2C(=O)O)C(C)C)CC1 (stereo not shown) [Compound 570, 5-(4-CHLORO-PHENYL)-3-[ISOPROPYL-(4- METHYL-CYCLOHEXANECARBONYL)- AMINO]-THIOPHENE-2-CARBOXYLIC ACID]
- IC50 [1]: < 5 µM

Compound: CC1CCC(C(=O)N(c2cc(-c3ccc(C#N)cc3)sc2C(=O)O)C(C)C)CC1 (stereo not shown) [Compound 576, 5-(4-CYANO-PHENYL-3-[ISOPROPYL-(4- METHYL-CYCLOHEXANECARBONYL)- AMINO]-THIOPHENE-2-CARBOXYLIC ACID]
- IC50 [1]: < 5 µM

Compound: CC(=O)c1ccc(-c2cc(NS(=O)(=O)c3ccc(Cl)cc3)c(C(=O)O)s2)cc1 [Compound 238, 5-(4-ACETYL-PHENYL)-3-(4-CHLORO-BENZENESULFONYLAMINO)-THIOPHENE-2-CARBOXYLIC ACID]
- IC50 [2]: < 5 µM

Compound: O=C(Nc1cc(-c2ccccc2)sc1C(=O)O)c1ccc(F)cc1F [Compound 77, 3-(2,4-DIFLUORO-BENZOYLAMINO)-5-PHENYL-THIOPHENE-2-CARBOXYLIC ACID]
- IC50 [2]: > 20 µM

Compound: O=C(O)c1sc(-c2ccccc2)cc1N(C(=O)c1ccc(Cl)cc1Cl)C(CO)CO [Compound 518, 3-[(2,4-DICHLORO-BENZOYL)-(2- HYDROXY-1-HYDROXYMETHYL-ETHYL)- AMINO]-5-PHENYL-THIOPHENE-2- CARBOXYLIC ACID]
- IC50 [1]: < 5 µM

Compound: Cc1ccc(C(=O)N(C)c2cc(-c3ccc([N+](=O)[O-])cc3)sc2C(=O)O)cc1 [Compound 194, 3-[METHYL-(4-METHYL-BENZOYL)-AMINO]-5-(4-NITRO-PHENYL)-THIOPHENE-2-CARBOXYLIC ACID]
- IC50 [2]: 5 to 20 µM

Compound: Cc1ccc(C(=O)N(Cc2cccc(C(C)(C)C)c2)c2cc(-c3ccccc3)sc2C(=O)O)cc1 [Compound 334, 3-[(3-TERT-BUTYL-BENZYL)-(4-METHYL- BENZOYL)-AMINO]-5-PHENYL- THIOPHENE-2-CARBOXYLIC ACID]
- IC50 [2]: < 5 µM

Compound: Cc1ccc(-c2cc(NS(=O)(=O)c3cc(C)ccc3C)c(C(=O)O)s2)cc1 [Compound 118, 3-(2,5-DIMETHYL-BENZENESULFONYLAMINO)-5-P-TOLYL-THIOPHENE-2-CARBOXYLIC ACID]
- IC50 [2]: < 5 µM

Compound: O=C(O)c1sc(-c2ccccc2)cc1N(Cc1ccc(F)cc1F)C(=O)C1CCC1 [Compound 495, 3-[CYCLOBUTANECARBONYL-(2,4- DIFLUORO-BENZYL)-AMINO]-5-PHENYL- THIOPHENE-2-CARBOXYLIC ACID]
- IC50 [1]: < 5 µM

Compound: Cc1ccc(C(=O)N(C)c2cc(-c3ccccn3)sc2C(=O)O)cc1 [Compound 296, 3-[METHYL-(4-METHYL-BENZOYL)-AMINO]-5-PYRIDIN-2-YL-THIOPHENE-2-CARBOXYLIC ACID]
- IC50 [2]: 5 to 20 µM

Compound: O=C(O)c1cc(S(=O)(=O)Nc2cc(-c3ccccc3)sc2C(=O)O)c(F)cc1Cl [Compound 221, 3-(5-CARBOXY-4-CHLORO-2-FLUORO-BENZENESULFONYLAMINO)-5-PHENYL-THIOPHENE-2-CARBOXYLIC ACID]
- IC50 [2]: > 20 µM

Compound: CC(C)N(C(=O)c1ccc(Cl)nc1)c1cc(-c2ccccc2)sc1C(=O)O [Compound 246, 3-[(6-CHLORO-PYRIDINE-3-CARBONYL)-ISOPROPYL-AMINO]-5-PHENYL-THIOPHENE-2-CARBOXYLIC ACID]
- IC50 [2]: > 20 µM

Compound: O=C(O)c1sc(-c2ccccc2)cc1N(Cc1ccc(-c2cccc(C(F)(F)F)c2)o1)C(=O)c1ccc(Cl)cc1Cl [Compound 4, 3-{(2,4-DICHLORO-BENZOYL)-[5-(3-TRIFLUOROMETHYL-PHENYL)-FURAN-2-YLMETHYL]-AMINO}-5-PHENYL-THIOPHENE-2-CARBOXYLIC ACID]
- IC50 [2]: < 5 µM

Compound: Cc1ccc(C(=O)N(C)c2cc(-c3ccc(C(F)(F)F)cc3)sc2C(=O)O)cc1 [Compound 275, 3-[METHYL-(4-METHYL-BENZOYL)-AMINO]-5-(4-TRIFLUOROMETHYL-PHENYL)-THIOPHENE-2-CARBOXYLIC ACID]
- IC50 [2]: < 5 µM

Compound: CCOC(=O)c1c(C)[nH]c(C)c1S(=O)(=O)Nc1cc(-c2ccccc2)sc1C(=O)O [Compound 167, 4-(2-CARBOXY-5-PHENYL-THIOPHEN-3-YLSULFAMOYL)-2,5-DIMETHYL-1H-PYRROLE-3-CARBOXYLIC ACID ETHYL ESTER]
- IC50 [2]: 5 to 20 µM

Compound: CC(=O)N(Cc1ccc(Cl)cc1)c1cc(-c2ccccc2)sc1C(=O)O [Compound 241, 3-[ACETYL-(4-CHLORO-BENZYL)-AMINO]-5-PHENYL-THIOPHENE-2-CARBOXYLIC ACID]
- IC50 [2]: 5 to 20 µM

Compound: CC(C)N(C(=O)c1ccc(Cl)cc1F)c1cc(-c2ccccc2)sc1C(=O)O [Compound 307, 3-[(4-CHLORO-2-FLUORO-BENZOYL)- ISOPROPYL-AMINO]-5-PHENYL- THIOPHENE-2-CARBOXYLIC ACID]
- IC50 [2]: < 5 µM

Compound: CC(=O)N(Cc1ccc(Cl)cc1)c1cc(-c2ccccc2)sc1C(=O)O [Compound 455, 3-[ACETYL-(4-CHLORO-BENZYL)-AMINO]- 5-PHENYL-THIOPHENE-2-CARBOXYLIC ACID]
- IC50 [1]: 5 to 20 µM

Compound: C=CCN(C(=O)Cc1ccc(Cl)cc1)c1cc(-c2ccccc2)sc1C(=O)O [Compound 339, 3-(ALLYL-[2-(4-CHLORO-PHENYL)- ACETYL]-AMINO)-5-PHENYL-THIOPHENE- 2-CARBOXYLIC ACID]
- IC50 [2]: 5 to 20 µM

Compound: Cc1ccccc1S(=O)(=O)Nc1cc(-c2cccc(F)c2)sc1C(=O)O [Compound 67, 5-(3-FLUORO-PHENYL)-3-(TOLUENE-2-SULFONYLAMINO)-THIOPHENE-2-CARBOXYLIC ACID]
- IC50 [2]: < 5 µM

Compound: O=C(O)c1sc(-c2ccccc2)cc1N(Cc1ccc(Cl)cc1)C(=O)CC1CCCC1 [Compound 463, 3-[(4-CHLORO-BENZYL)-(2- CYCLOPENTYL-ACETYL)-AMINO]-5- PHENYL-THIOPHENE-2-CARBOXYLIC ACID]
- IC50 [1]: < 5 µM

Compound: O=C(O)c1sc(-c2ccccc2)cc1NS(=O)(=O)c1ccc(F)cc1C(F)(F)F [Compound 141, 3-(4-FLUORO-2-TRIFLUOROMETHYL-BENZENESULFONYLAMINO)-5-PHENYL-THIOPHENE-2-CARBOXYLIC ACID]
- IC50 [2]: 5 to 20 µM

Compound: O=C(O)c1sc(-c2ccccc2)cc1NS(=O)(=O)c1ccc(Cl)c(Cl)c1 [Compound 34, 3-(3,4-DICHLORO-BENZENESULFONYLAMINO)-5-PHENYL-THIOPHENE-2-CARBOXYLIC ACID]
- IC50 [2]: 5 to 20 µM
